Patent US6657052B1, “Biomolecular labeling” (University of Arkansas, priority 1997, dated 2003)

Experiments:
[1] = cited from earlier work; for pKa: H2O, 25° C., Lange's Handbook of Chemistry
[2] = Hydrolysis of kinetically formed trialkylphosphate in the presence of water (1H NMR); type: physicochemical
Source text: (§1) 3.3 Kinetic favorability of phosphotriester formation over hydrolysis in the presence of water. The reaction of quinone methide 7 and two equivalents of dibenzylphosphoric acid in the presence of excess water (˜200 equivalents for a homogeneous solution) afforded only trialkylphosphate 8 as the product in the equilibrium by 1H NMR analysis. […] Trialkylphosphate 8 is the kinetic product. A similar amount of 8 is produced in the presence of a much higher concentration of water (3,000 equivalents forming a bilayer) at ambient temperature after 30 minutes. […] Hydrolysis to benzyl alcohol appears to be the thermodynamic product^39. Similar results of quinone methides reacting with amino acid derivatives under aqueous conditions have been reported by other researchers^43.
as §1, with “(3)” for “3.3”, “^1H” for “1H”, “product. […]” for “product^39. Similar results of quinone methides reacting with amino acid derivatives under aqueous conditions have been reported by other researchers^43.”

Structure (SMILES) | pKa [1] | reported pKa values for various substituted guanidines [1] | also measured
CCN(C)CC [Et2MeN] | 10.4 |  | 
N=C(N)Nc1ccccc1 [phenylguanidine] |  | 10.8 | 
N=C(N)N [guanidine] | 14.38 |  | 
Nc1cccc(O)c1 [3-aminophenol] | 9.83 |  | 
CNC(=N)N [methylguanidine] | 14.1 | 14.1 | 
Cc1cc(COP(=O)(OCc2ccccc2)OCc2ccccc2)cc(C)c1O [trialkylphosphate 8] |  |  | hydrolysis to benzyl alcohol ([2]; 3,000 equivalents water forming a bilayer, ambient temperature, after 18 hours): complete conversion to benzyl alcohol; hydrolysis to benzyl alcohol ([2]; excess water (~200 equivalents, homogeneous solution), 18 hours at ambient temperature): Minor amounts of the benzyl alcohol hydrolysis product
